# According to US20240216362A1, “BENZOTHIAZOLE AND QUINOLINE DERIVATIVES FOR USE IN TREATING KAWASAKI DISEASE” (Shanghai Yao Yuan Biotechnology Co., Ltd., priority 2021, published 2024):
# pIC50: −log10 of the molar value. Where a name gives a salt, the structure may show the parent alone.
# Tests used:
# [1] = biological target: T237M hALPK1 mutant (HEK293 A2 cells) (Homo sapiens (Human), UniProt Q96QP1, T237M); assay: Inhibition of IL-8 secretion in cells expressing T237M ALPK1 mutant; type: cell-based; settings: 40 hours, relative to wild-type HEK293 cells
# Protocol: (§1) HEK293 cells were cultured as described above prior to transient transfection with either empty vector or an expression vector encoding (i) human ALPK1 (hALPK1), (ii) hALPK1 with the T237M activating mutation (hALPK1-T237M) (iii) hALPK1 with the V1092A activating mutation (hALPK1-V1092A), or (iv) a kinase dead ALPK1 mutant (hALPK1-T237M-D1194S). Transfection was performed according to manufacturer's protocols (Lipofectamine™ 3000, ThermoFisher). Transfected cells were selected, seeded onto 96-well plates and treated with serial dilutions of the test compounds for 6.5 hr. Following treatment, cell viability was determined using a luminescent cell viability assay (Cell Counting-Lite Assay or “CCL Assay” from Vazyme Biotech Co., Ltd.) and cell free supernatants were collected and analyzed for IL-8 protein by IL-8 ELISA as described above. […] As shown in the figure, very little IL-8 was detectable in cells transfected with any of the empty vector, hALPK1, or the kinase dead hALPK1 mutant. In contrast, both of the activating mutations in hALPK1 induced significant IL-8 secretion.
# Next, we tested a representative set of compounds for inhibition of IL-8 secretion in cells expressing each of the activating ALPK1 mutants. T237M and V1092A. […] For the T237M mutant study, we produced an HEK293 cell line (“A2”) stably expressing the T237M hALPK1 mutant. A2 cells were cultured in the presence of test compound (6 uM) for 40 hours total. Fresh medium and compound were added at 24 hours. Cell viability and IL-8 secretion were determined 16 hours after the second addition of compound, using the CCL assay and IL-8 ELISA as described above.
# [2] = biological target: hALPK1-V1092A (transiently transfected HEK293 cells) (Homo sapiens (Human), UniProt Q96QP1, V1092A); assay: Inhibition of IL-8 secretion in cells expressing V1092A ALPK1 mutant; type: cell-based; settings: 24 hours, relative to wild-type HEK293 cells
# Protocol: as §1
# For the V1092A mutant study shown in Table 4, HEK293 cells were transiently transfected with hALPK1-V1092A or hALPK1 (wildtype) expression vectors and then treated with test compounds for 24 hours. Fresh medium and compound were added at 18 hours. Cell viability and IL-8 secretion were determined 6 hours after the second addition of compound, using the CCL assay and IL-8 ELISA as described above.
# [3] = tested on: ALPK1-dependent innate immunity gene expression; assay: Inhibition of ALPK1 in coronary artery, aorta and heart muscle (innate immunity gene mRNA); type: in vivo, Sprague-Dawley (SD) rats; settings: SD rats, 40 mpk oral, 2 h before ALPK1 agonist ip, tissue 3 h after agonist, compared with vehicle group
# Source text: To examine if ALPK1 inhibitors can suppress innate immunity genes activated upon ALPK1 activation, SD rats were orally administered compound T007 and gene expression of innate immunity genes was activated by intraperitoneal administration of the ALPK1 agonist, D-glycero-D-manno-6-fluoro-heptose-1β-S-ADP. The coronary artery, aorta and heart muscle tissues were examined for inhibition of ALPK1 inhibitors on innate immunity gene expression.
# Twenty male Sprague-Dawley (SD) rats were randomly divided into four groups. A first control group (“normal”) was administered vehicle (0.5% MC) orally, followed 2 hours later with PBS administered by intraperitoneal injection (ip). A second control group (“vehicle”) was administered vehicle (0.5% MC) orally, followed 2 hours later by ip administration of the ALPK1 agonist, D-glycero-D-manno-6-fluoro-heptosc-1β-S-ADP (50 ppk). Treatment groups were administered ALPK1 inhibitors (40 mpk) orally, followed 2 hours later by ip administration of the ALPK1 agonist. The coronary artery, cardiac muscle and aorta from each group were collected 3 hours after administration of the ALPK1 agonist. RNA was isolated and samples were analyzed by RT-PCR for expression of MCP-1 (CCL-2), CCL-7, CXCL-1, CXCL-11, CXCL-10, IL-1β, CCL-5, TNF-α, and IL-6 mRNA. Briefly, total RNA was extracted following the protocol of the Rneasy Mini Kit (QIAGEN, Germany). Messenger RNA was reverse transcribed to cDNA using HiScript Q RT SuperMix for qPCR Kit (Vazyme, Nanjing, China). Quantitative PCR was conducted using AceQ qPCR SYBR Green Master Mix Kit (Vazyme, Nanjing, China) on the QuantStudio 5 applied biosystems (Thermo scientific, USA). Relative mRNA levels were calculated using the 2−ΔΔCT method, and HPRT was used as a reference for gene expression normalization. Data were presented as the gene fold change against their respective expression in the control arm.
# [4] = tested on: IL1β mRNA induced by ALPK1 activation in THP-1-derived macrophages; assay: PMA-differentiated THP-1 cell based assay (IL1β mRNA); settings: Homo sapiens; PMA-differentiated THP-1 cells, ALPK1 agonist stimulation 4 h; read-out: IC50 for inhibition of IL1β mRNA
# Protocol: Peripheral blood mononuclear cells (PBMCs) from Kawasaki patients show activation of ALPK1-TIFA-IL10μ pathway. We evaluated the ability of ALPK1 inhibitors to suppress IL1β levels following ALPK1 activation in THP-1-derived macrophage cells in which the ALPK1-TIFA-IL1P pathway is activated by an ALPK1 agonist, D-glycero-D-manno-6-fluoro-heptose-1β-S-A DP.
# THP-1 cells were cultured in RPMI 1640 containing 10% heat inactivated FBS, penicillin (100 units/ml) and streptomycin (100 μg/ml), and maintained in a humidified incubator with 95% atmospheric air and 5% CO2. Prior to the experiment, THP-1 cells were seeded into 24-well flat-bottom plate at a cell density of […]. Phorbol myristate acetate (PMA; 50 ng/ml) was used to treat THP-1 cells for 48 h, and then THP-1-derived macrophages were obtained. Following treatment THP-1 cells were pretreated with serially diluted compounds for 2 hours and then stimulated with D-glycero-D-manno-6-fluoro-heptose-1β-S-ADP for 4 h. […] The mRNA expression levels IL1β were detected by SYBR green gene expression assays. […] Relative expression was calculated by comparing to vehicle control and the values were plotted as fold induction. All activity results were expressed as the mean of triplicate determinations. IC50 was determined from dose response curve using Prism Software, version 6.00 from GraphPad Software.
# [5] = tested on: ALPK1-dependent gene expression in PBMC; assay: Inhibition of ALPK1 in PBMC cells (gene mRNA); type: in vivo, Sprague-Dawley (SD) rats; settings: SD rats, 10 mpk oral, 2 h before ALPK1 agonist ip, blood 3 h after agonist, compared with vehicle group
# Source text: We examined whether ALPK1 inhibitors can suppress ALPK1-dependent activation of a set of such genes in rats. Animals were orally administered compound T007 and ALPK1-dependent gene expression was induced by intraperitoneal administration of the ALPK1 agonist, D-glycero-D-manno-6-fluoro-heptose-lo-S-ADP. PBMCs were collected and gene expression analyzed, as described in more detail below.
# Thirty-six male Sprague-Dawley (SD) rats were randomly divided into six groups. A first control group (“normal”) was administered vehicle (0.5% MC) orally, followed 2 hours later with PBS administered by intraperitoneal injection (ip). A second control group (“vehicle”) was administered vehicle (0.5% MC) orally, followed 2 hours later by ip administration of the ALPK1 agonist, D-glycero-D-manno-6-fluoro-heptose-1β-S-ADP (50 ppk). Treatment groups were administered ALPK1 inhibitors (10 mpk) orally, followed 2 hours later by ip administration of the ALPK1 agonist. […] RNA was isolated and samples were analyzed by RT-PCR for gene expression. […] Quantitative PCR was conducted using AceQ qPCR SYBR Green Master Mix Kit (Vazvme, Nanjing, China) on the QuantStudio 5 applied biosystems (Thermo scientific, USA). Relative mRNA levels were calculated using the 2−ΔΔCT method, and HPRT was used as a reference for gene expression normalization. […]
# ALPK1 = ALPK1 (Homo sapiens (Human), UniProt Q96QP1); assay: ALPK1 in vitro kinase assay (HTRF, TIFA phosphorylation); type: biochemical; settings: ADP-Heptose activated ALPK1, TIFA substrate
# Protocol: ALPK1 kinase activity was measured in an in vitro assay using ADP-Heptose as the ALPK1 ligand and activator of its kinase activity and TIFA protein as the ALPK1 phosphorylation substrate. Since phosphorylated TIFA proteins oligomerize, Homogeneous Time-Resolved Fluorescence (HTRF) was used to measure protein:protein interaction between HA-tagged TIFA proteins as an indicator of TIFA phosphorylation.
# In brief, dose-response studies were performed with HEK293 cells cultured in Dulbecco's Modified Eagle Medium (DMEM) supplemented 10% fetal bovine serum (FBS, Hyclone™) containing antibiotics (pen/strep, G418) in 384-well assay plates. Each well contained 0.1 mg TIFA, ALPK1 (2 nM final concentration in reaction mixture) and kinase buffer (100 mM of HEPES pH 7.4, 4 mM DTT, 40 mM MgCl2, 20 mM of β-Glycerol phosphate disodium salt, 0.4 mM of Na3VO4, 0.16 mg/mL). […]
# For HTRF, samples were incubated with a Tb cryptate-labeled anti-HA antibody for capturing HA-tagged proteins according to the manufacturer's instructions (PerkinElmer™, CisBio™) and the fluorescence signal was quantified (Tecan Infinite F NANO+). HTRF signals were calculated as the HTRF ratio (ratio of fluorescence measured at 665 nm and 620 nm)×104 (thereby using the signal at 620 nm as an internal standard).
# IC50 values were determined using 3- or 4-parameter logistic equation using GraphPad Prism version 6.00. […]
# Sequence of T237M hALPK1 mutant (HEK293 A2 cells) (Q96QP1 whole entry T237M): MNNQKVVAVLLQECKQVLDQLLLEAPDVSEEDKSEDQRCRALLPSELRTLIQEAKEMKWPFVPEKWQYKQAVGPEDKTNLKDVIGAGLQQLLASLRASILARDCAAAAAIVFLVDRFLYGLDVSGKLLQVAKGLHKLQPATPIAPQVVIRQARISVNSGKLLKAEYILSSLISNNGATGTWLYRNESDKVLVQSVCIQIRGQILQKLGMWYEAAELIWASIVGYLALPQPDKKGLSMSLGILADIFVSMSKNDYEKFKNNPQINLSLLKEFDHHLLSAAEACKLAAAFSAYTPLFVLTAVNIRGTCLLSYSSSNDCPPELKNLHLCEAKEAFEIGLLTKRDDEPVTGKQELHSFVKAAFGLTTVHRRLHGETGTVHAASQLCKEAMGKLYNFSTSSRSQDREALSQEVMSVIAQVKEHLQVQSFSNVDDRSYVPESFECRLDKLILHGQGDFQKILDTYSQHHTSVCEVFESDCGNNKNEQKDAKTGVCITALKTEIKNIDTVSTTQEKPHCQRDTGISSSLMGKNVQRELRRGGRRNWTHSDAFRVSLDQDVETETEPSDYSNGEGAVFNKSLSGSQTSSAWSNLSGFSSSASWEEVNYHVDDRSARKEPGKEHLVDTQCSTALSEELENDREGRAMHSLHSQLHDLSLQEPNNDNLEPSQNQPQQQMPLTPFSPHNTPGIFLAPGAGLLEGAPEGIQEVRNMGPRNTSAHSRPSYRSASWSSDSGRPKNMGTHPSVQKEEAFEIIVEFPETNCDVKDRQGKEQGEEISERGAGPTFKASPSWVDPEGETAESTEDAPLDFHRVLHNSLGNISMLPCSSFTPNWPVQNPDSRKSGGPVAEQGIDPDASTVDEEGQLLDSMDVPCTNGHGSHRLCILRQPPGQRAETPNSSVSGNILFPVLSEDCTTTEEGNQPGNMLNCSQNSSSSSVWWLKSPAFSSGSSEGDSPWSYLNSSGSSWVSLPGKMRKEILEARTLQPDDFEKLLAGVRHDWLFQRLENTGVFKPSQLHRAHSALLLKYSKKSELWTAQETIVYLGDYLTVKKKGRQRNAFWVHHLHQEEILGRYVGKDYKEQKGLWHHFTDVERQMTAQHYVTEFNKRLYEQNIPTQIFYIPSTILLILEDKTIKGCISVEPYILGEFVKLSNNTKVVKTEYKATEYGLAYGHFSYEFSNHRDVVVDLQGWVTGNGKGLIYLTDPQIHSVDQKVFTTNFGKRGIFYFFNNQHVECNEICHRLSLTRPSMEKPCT
# Sequence of hALPK1-V1092A (transiently transfected HEK293 cells) (Q96QP1 whole entry V1092A): as the sequence (Q96QP1 whole entry T237M) above, with M237T, V1092A counted along it
# Sequence of ALPK1 (Q96QP1 whole entry): as the sequence (Q96QP1 whole entry T237M) above, with M237T counted along it
Structure (SMILES),inhibition at 6 µM [1] [%],inhibition at 6 µM [2] [%],further results
"COc1cccc2ccc(NC(=O)c3c(F)cc(N4CCNCC4)cc3F)nc12 [Compound Q001, 2,6-difluoro-N-(8-methoxyquinolin-2-yl)-4-(piperazin-1-yl)benzamide]",69,68,
"COc1cccc2ccc(NC(=O)c3c(F)ccc(N4CCNCC4)c3F)nc12 [Compound Q005, 2,6-difluoro-N-(8-methoxyquinolin-2-yl)-3-(piperazin-1-yl)benzamide]",,52,
"C#Cc1cccc2sc(NC(=O)c3c(F)cc(N4CCNCC4)cc3F)nc12 [Compound T007, N-(4-ethynylbenzo[d]thiazol-2-yl)-2,6-difluoro-4-(piperazin-1-yl)benzamide]",91,95,"mRNA expression of aorta IL-6, CXCL-1, CXCL-10, CCL-2 [3]: significantly decreased; mRNA expression of cardiac muscle TNF-α, IL-1b, IL-6, CXCL-1, CXCL-10, CXCL-11, CCL-2 and CCL-5 [3]: significantly decreased; mRNA expression of coronary artery TNF-α, CXCL-1, CCL-2 and CCL-7 [3]: significantly decreased; pIC50 [4]: 7.68; mRNA expression of PBMC CXCL-1 [5]: significantly decreased"
"COc1cccc2sc(NC(=O)c3c(F)cc(N4CCNCC4)cc3F)nc12 [Compound T017, 2,6-difluoro-N-(4-methoxybenzo[d]thiazol-2-yl)-4-(piperazin-1-yl)benzamide hydrochloride]",,50,
"O=C(Nc1nc2c(F)cc(F)cc2s1)c1c(F)cc(N2CCNCC2)cc1F [Compound T035, N-(4,6-difluorobenzo[d]thiazol-2-yl)-2,6-difluoro-4-(piperazin-1-yl)benzamide]",,,pIC50 (ALPK1): 5.87
"C#Cc1cccc2sc(NC(=O)c3c(Cl)cc(N4CCNCC4)cc3Cl)nc12 [Compound T048, 2,6-dichloro-N-(4-ethynylbenzo[d]thiazol-2-yl)-4-(piperazin-1-yl)benzamide]",66,,
"C#Cc1cccc2sc(NC(=O)c3c(C)cc(N4CCNCC4)cc3F)nc12 [Compound T050, N-(4-ethynylbenzo[d]thiazol-2-yl)-2-fluoro-6-methyl-4-(piperazin-1-yl)benzamide]",,,pIC50 (ALPK1): 7.82
